# Values of other authors in paper PMC10901556, “Conservation of Affinity Rather Than Sequence Underlies a Dynamic Evolution of the Motif-Mediated p53/MDM2 Interaction in Ray-Finned Fishes” (Molecular Biology and Evolution, 2024).
# Target: human MDM2
# Conditions: ref Åberg et al. (2018); read-out: KD (μM) p53TAD^full-length native (converted); cited from earlier work
# Description: Therefore, we expressed, purified, and subjected a longer p53TAD construct from D. rerio to binding experiments (Fig. 4a).
substance,measurement,value
H.sap p53 full: expressed full-length human p53 transactivation domain,Kd,0.1 µM
